Measured values as given in patent US6890954B1, “Uses of 2-bromopalmitate in the treatment of autoimmune disease” (priority 1999, dated 2005).

Columns and labels:
Format in all cases: cell-based
Fyn(16)-eGFP = test: Localization of Fyn(16)-eGFP in COS-1 cells (fluorescence microscopy, P100/S100 fractionation)
Procedure: COS-1 cells were transfected with a Fyn(16)-eGFP construct (12) and seeded onto 25-mm glass coverslips 2 days prior to the experiment. Cells were treated overnight with or without 2 bromopalmitate as described above. Plates were washed with PBS and coverslips were mounted onto glass slides in PBS and observed with a 40× and 100×oil immersion lens on a Zeiss Axiophot 2 microscope and photographed with Kodak TMAX 400.
To investigate the effect of 2-bromopalmitate on the intracellular localization of Fyn more precisely, COS-1 cells expressing a Fyn(16)-eGFP construct were examined by immunofluorescence. This construct contains the first 16 amino acids of Fyn fused in frame to eGFP; the chimera is targeted to the plasma membrane and detergent resistant microdomains (12). Cells were cultured with no treatment, with 2-bromopalmitate or with 2-hydroxymyristate, a known myristoylation inhibitor (40,41), as described above, and were examined live by fluorescence microscopy.
Analysis of the subcellular localization of Fyn(16)-eGFP in the presence of 2-bromopalmitate and 2-hydroxymyristate was performed as described above for steady-state Fyn. As depicted in FIG. 2B, in the absence of treatment, 80% of Fyn(16)-eGFP Fyn was membrane bound, whereas in cells treated with 2-bromopalmitate and 2-hydroxymyristate, 65% and 78% of Fyn(16)-eGFP were cytosolic, respectively.

Fyn [1] = target: T1, Fyn (Homo sapiens, UniProt P06241); test: Fyn fatty acylation (IC13/IC16 incorporation) in transfected COS-1 cells; conditions: for effect of palmitate analog on Fyn fatty acylation: COS-1 cells, data not shown
T1 construct: expressed in transfected cells; host or cells: COS-1
T1 sequence (P06241 whole entry, species assumed): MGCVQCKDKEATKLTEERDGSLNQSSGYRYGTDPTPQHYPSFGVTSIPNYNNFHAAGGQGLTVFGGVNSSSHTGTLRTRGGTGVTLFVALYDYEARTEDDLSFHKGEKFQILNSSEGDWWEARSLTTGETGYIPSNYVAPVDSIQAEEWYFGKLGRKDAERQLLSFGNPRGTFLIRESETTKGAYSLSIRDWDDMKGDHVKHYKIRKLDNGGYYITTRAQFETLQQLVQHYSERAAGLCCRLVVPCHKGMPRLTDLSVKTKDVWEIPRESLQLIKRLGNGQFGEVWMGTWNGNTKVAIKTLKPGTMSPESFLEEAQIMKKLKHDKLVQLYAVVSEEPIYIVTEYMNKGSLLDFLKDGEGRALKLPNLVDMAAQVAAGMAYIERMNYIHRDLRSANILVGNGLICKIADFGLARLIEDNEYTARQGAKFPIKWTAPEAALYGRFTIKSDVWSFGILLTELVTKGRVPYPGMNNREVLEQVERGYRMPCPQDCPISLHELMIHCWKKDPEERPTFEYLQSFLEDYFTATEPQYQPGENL
Procedure: The syntheses of 13-[^125I]-iodotridecanoic acid (IC13)or 16-[^125I]-iodohexanoic acid (IC16) were carried out as described previously (39). Cell labeling was carried out as described (12,13) with modifications. Briefly, each 60 mm plate of Fyn transfected COS-1 cells was incubated O/N in DMEM containing 2.5% FBS, 0.5% defatted BSA (Sigma) with or without 100 μM 2-bromopalmitate or 50 μM polyunsaturated fatty acid. Prior to labeling, the cells were incubated for 1 hr with 1 ml of DMEM containing 2% dialyzed FBS, then labeled for 4 hours with 25-50 μCi IC13 or IC16 in DMEM containing 2% dialyzed FBS, 0.5% defatted BSA with or without 2-bromopalmitate or polyunsaturated fatty acid. Labeled cells were washed three times with cold STE (100 mM NaCl, 10 mM Tris pH 7.4, 1 mM EDTA) and lysed in 0.6 ml of cold RIPA buffer containing protease inhibitors (10 μg/ml each of benzamidine, AEBSF, TPCK and TLCK, 1.5 μg/ml each of Leupeptin, Pepstatin A and Aprotinin). Lysates were clarified at 100,000×g for 15 min at 4° C. in a Beckman TL-100 ultracentrifuge. Lysates were immunoprecipitated with rabbit anti-Fyn antibody and protein A-agarose. Immunoprecipitates were washed three times with cold RIPA buffer and suspended in 1× sample buffer containing 100 mM dithiothreitol and subjected to SDS-PAGE. Gels were dried between cellophane and analyzed by phosphorimaging after 12-36 hours exposure. Experiments in Jurkat T cells were carried out according to the above protocol using 2×10^7 cells per experiment, and reducing the incubation time with 2-bromopalmitate to 3-4 hours.
A number of palmitic acid analogs were screened for their ability to inhibit Fyn palmitoylation. COS-1 cells were transfected with cDNA encoding Fyn. Three days after transfection, the cells were labeled with either [^35S]-methionine, 13-[^125I]-iodotridecanoic acid (IC13), an iodinated myristate analog, or 16-[^125I]-iodohexanoic acid (IC16), an iodinated palmitic acid analog (39), in the presence or absence of nonradioactive palmitate analogs. Cells were lysed, immunoprecipitated with anti-Fyn antibody, and analyzed by SDS-PAGE and phosphorimaging. […] When normalized for total protein levels, 70% of Fyn myristoylation and over 90% of Fyn palmitoylation was inhibited in the presence of 2-bromopalmitate. Treatment of cells with other analogs, including 2-hydroxypalmitate, palmitoleic acid and 16-hydroxypalmitate had no effect (data not shown).
To test this hypothesis, Fyn transfected COS-1 cells were incubated O/N with or without 50 μM arachidonic acid (20:4) or eicosapentaenoic acid (20:5), then labeled with IC13 or IC16. Total protein levels were monitored by immunoblotting aliquots of each sample with anti-Fyn antibody (FIG. 8A, lower panel).

Fyn [2] = test: DRM localization of Fyn in PUFA-treated COS-1 cells (sucrose gradient); conditions: COS-1, 50 μM PUFA; untreated 30%
Procedure: For isolation of detergent resistant microdomains in PUFA-treated COS-1 cells, a confluent 100 mm plate of COS-1 cells transiently transfected with Fyn cDNA was washed with S-IE and subjected to the same procedure described above. Fractions were analyzed for the presence of Fyn by immunoblotting.
Whether 20:4 and 20:5 inhibited localization of Fyn to detergent resistant microdomains in COS-1 cells was examined next. Cells were treated with or without polyunsaturated fatty acids as described above and layered on the bottom of a sucrose gradient as described above. Fractions were collected and analyzed by immunoblotting with anti-Fyn antibody.

SMILES	effect of palmitate analog on Fyn fatty acylation (Fyn [1])	inhibition of incorporation of IC16 into Fyn (palmitoylation) (Fyn [1]; COS-1, 50 μM PUFA overnight) [%]	Fyn found in detergent resistant microdomains (Fyn [2]) [%]	further results
CCCCCCCCCCCCC(O)C(=O)O (stereo not shown) [2-hydroxymyristate, reference compound]	–	–	–	Fyn(16)-eGFP cytosolic (Fyn(16)-eGFP; COS-1, 100 μM overnight, P100/S100, untreated 80% membrane bound): 78%; Fyn(16)-eGFP distribution by fluorescence microscopy (Fyn(16)-eGFP; COS-1 live cells, 100 μM overnight): reduced plasma membrane staining
CCCCCCCCCCCCCCC(O)C(=O)O (stereo not shown) [2-hydroxypalmitate]	no effect	–	–	–
O=C(O)CCCCCCCCCCCCCCCO [16-hydroxypalmitate]	no effect	–	–	–

Now from value to molecule, other results behind:

effect of palmitate analog on Fyn fatty acylation (Fyn [1])	inhibition of incorporation of IC16 into Fyn (palmitoylation) (Fyn [1]; COS-1, 50 μM PUFA overnight) [%]	SMILES	Fyn found in detergent resistant microdomains (Fyn [2]) [%]	further results
–	55	CCCCC/C=C\C/C=C\C/C=C\C/C=C\CCCC(=O)O [arachidonic acid]	16	effect on Fyn myristoylation (IC13 incorporation) (Fyn [1]; COS-1, 50 μM PUFA overnight): almost no effect
–	65	CC/C=C\C/C=C\C/C=C\C/C=C\C/C=C\CCCC(=O)O [eicosapentaenoic acid]	5.3	–
no effect	–	CCCCCC/C=C\CCCCCCCC(=O)O [palmitoleic acid]	–	–
